Series [1] in a line: Cell cytotoxicity assay (MTT) on Vero-76 cells. The format is cell-based, Cercopithecus Aethiops. To be noted: Cercopithecus aethiops (African green monkey), Vero-76 cells; MTT method, 48–96 h; CC50±SEM. As for the experimental part: (§1) Vero-76 cells (ATCC CRL 1587 Cercopithecus Aethiops) were seeded at an initial density of 4 × 10^5 cells/mL in 24-well plates, in culture medium (Dulbecco’s Modified Eagle Medium (D-MEM) with L-glutamine, supplemented with fetal bovine serum (FBS), 0.025 g/L kanamycin). Cell cultures were then incubated at 37 °C in a humidified, 5% CO2 atmosphere in the absence or presence of serial dilutions of test compounds. Cell viability was determined after 48–96 h at 37 °C by the MTT staining method. The results are expressed as CC50, which is the concentration of compound necessary to inhibit cell growth by 50%. Each CC50 value is the mean and standard deviation of at least three separate experiments performed in duplicate.

Series [2] deals with Vero-76 cells. The series is described as follows: Cell cytotoxicity assay (MTT) on Vero-76 cells. The series is classed as cell-based, Cercopithecus Aethiops. To be noted: ratio of Vero-76 CC50 to hTAAR1 EC50. As for the experimental part:
as §1

Details of series [3]: method as in PMID 5719030. To be noted: potentiating pressor effect of tyramine and NE; cited from earlier work.
Details of series [4]: method as in PMID 5169226. To be noted: rats, intraperitoneal, 100 mg/kg; cited from earlier work.
Series [5] has as its target T1, hTAAR1 (Homo sapiens, UniProt Q96RJ0).
T1 construct: expressed in transfected cells; host or cells: HEK-293T (ATCC)
T1 sequence (Q96RJ0 1-339): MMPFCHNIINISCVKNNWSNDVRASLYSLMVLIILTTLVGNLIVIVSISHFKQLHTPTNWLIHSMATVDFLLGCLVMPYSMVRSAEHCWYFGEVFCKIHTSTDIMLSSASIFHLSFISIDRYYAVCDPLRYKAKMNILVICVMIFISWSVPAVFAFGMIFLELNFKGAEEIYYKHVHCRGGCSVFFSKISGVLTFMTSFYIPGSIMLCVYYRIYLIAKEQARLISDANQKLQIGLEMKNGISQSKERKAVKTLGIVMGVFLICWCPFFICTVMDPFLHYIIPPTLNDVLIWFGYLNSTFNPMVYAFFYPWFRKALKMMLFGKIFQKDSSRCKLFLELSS
In words: Functional activity at hTAAR1, cAMP BRET biosensor in HEK-293T cells. The format is cell-based. Particulars: for Emax at 10 µM: HEK-293T, read-out: hTAAR1 Activity; for EC50: dose–response 10 nM to 10 μM, means of 4 experiments, errors within 10%, read-out: hTAAR1 EC50. As for the experimental part:
The activity of the compounds was measured using human embryonic kidney 293 (HEK-293T) cells co-transfected with plasmids encoding hTAAR1 and a cAMP Bioluminescence Resonance Energy Transfer (BRET) biosensor, or empty vector as a control. TYR was used as a positive control for agonism. Firstly, all the compounds were tested at 10 μM either for agonistic or antagonistic activity.
BRET screening was described in detail elsewhere. HEK-293T (ATCC) cells were transiently сo-transfected with plasmids encoding hTAAR1 and a cAMP BRET biosensor using Lipofectamine® (ThermoFisher) reagent, and then plated in 96-well plates (Corning) at […] per well. On the following day, culture medium was removed and 70 μL of phosphate-buffered saline containing calcium and magnesium was added to each well, followed by the addition of 10 μL […] 3-isobutyl-1-methylxanthine solution (Sigma), and 10 μL 50 μM coelenterazine-h solution (Promega). All tested compounds were dissolved in DMSO to yield 10 mM stock solutions. After 10 min incubation, either 10 μL of vehicle or 10× of the concentrated solution of compound to be tested (10 μM final concentration) was added. Readings were collected using a Mithras LB943 multimodal plate reader (Berthold Technologies). The BRET signal is determined by calculating the ratio of the light emitted at 505 to 555 nm to the light emitted at 465 to 505 nm.
Curves were fitted by applying non-linear regression models on GraphPad Prism 6 (GraphPad Software).

The subject of series [6] is human hepatocyte. Particulars: cited from earlier work.
For series [7] the following is noted: cited from earlier work.

The compound `Cl.N=C(N)N1CCN(c2ccccc2)CC1` [Compound 1, 4-Phenylpiperazine-1-carboximidamide hydrochloride] came in with a melting point of 214 to 217 °C. Further, the midpoint of cytotoxicity in series [1], the CC50, lay at 84 ± 5 µM. Also, the “Therapeutic index (CC50/EC50)” value in series [2] was determined as 227. Further, the sympathomimetic effect entry in series [3] was “a rise in the blood pressure”. Moreover, in series [4], the “increase of the concentration of NE in the brain” value is on record as “about 34.5%” and the “increase of the concentration of NE in the heart” value was approximately 42.7%. Further, in series [5], the Emax at 10 µM is 71% and the concentration for a half-maximal effect (EC50) was found to be 0.37 µM.

In the case of `Cl.N=C(N)N1CCN(c2cccc(Cl)c2)CC1` [Compound 4, 4-(3-Chlorophenyl)piperazine-1-carboximidamide hydrochloride], in series [1], the CC50 came to 90 ± 3 µM. Also, in series [2], the “Therapeutic index (CC50/EC50)” value was 45. The sympathomimetic effect entry in series [3] is on record as “a rise in the blood pressure”. In series [5], the Emax at 10 µM was determined as 35% and the EC50 was more than 2 µM.

With `Cc1c(F)cccc1[C@H]1COC(N)=N1` [RO5263397], the human hepatocyte clearance result in series [6] was “acceptable”. Also, the AMES/MNT test result in series [7] is reported as “negative”.

The values are drawn from paper PMC7697893, “Novel 1-Amidino-4-Phenylpiperazines as Potent Agonists at Human TAAR1 Receptor: Rational Design, Synthesis, Biological Evaluation and Molecular Docking Studies” (Pharmaceuticals, 2020).
